Results reported in ChEMBL document CHEMBL3507680, “University of Dundee, Gates Library screen for HepG2 cell viability”.

assay: Human HepG2 cell viability assay in 384 well format; type: toxicity, cell-based; design: dose 125 nL, time 70.5 hour; concentration not given beside the values; details: HepG2 cells, read-out: Inhibition

Structure (SMILES) | cytotoxicity at 70.5 h
CC(C)c1nc(CN(C)Cc2cnc(N3CCOCC3)nc2)no1 | -6.44%
Cc1cc2nc(C(C)C)cc(N3CCC(O)CC3)n2n1 | -9.55%
O=C(c1ccc[nH]1)N1CCOC2(COCCN(c3cncnc3)C2)C1 (configuration not stated) | -7.73%
Cc1cc(C)n(CC2CCCN2C(=O)c2ccc3nncn3c2)n1 (configuration not stated) | -4.03%
O=C(C1CC1)N1CCN2C[C@@H](CO)[C@H](c3ccccc3)[C@H]2C1 | 8.58%
CCOCC1CN(S(=O)(=O)N(C)C)Cc2cnn(CC)c21 (configuration not stated) | -8.84%
Cn1cc(C2CCCN2C(=O)CCc2cnn(-c3ccccc3)c2)cn1 (configuration not stated) | -3.27%
COCCC1COC2(CCN(C(=O)c3cccnc3)CC2)C1 (configuration not stated) | -13%
CC(=O)N1N=C(c2ccccc2)OC1C(=O)NCCc1ccc(Cl)cc1 (configuration not stated) | 8.17%
CCS(=O)(=O)CC(=O)Nc1ccc2oc(C3CC3)nc2c1 | -0.903%
O=C(NCC1(O)CCC1)c1c(O)cc(F)cc1F | 13.9%
Cc1nc(C(=O)N2CCCC2c2c(C)nn(C)c2Cl)ccc1C#N (configuration not stated) | -4.22%
Cn1ccnc1CN1C[C@@H](CN2CCCCC2)[C@@H](CO)C1 | -6.64%
COc1cc2c(cc1CNC(=O)Cc1cc(C)[nH]n1)OC(C)C2 (configuration not stated) | 3.19%
c1cnn(CC2CCCN2Cc2nc(C3CC3)no2)c1 (configuration not stated) | -8.97%
Cc1ccc(-c2csc(N)c2C#N)cc1 | -16.3%
Cc1ccc(CNc2cnn(CC(F)F)c2)cc1C | -0.638%
O=C(CCc1ccncc1)NCc1csc(Br)c1 | -7.74%
CN(C)CC1CN(Cc2nc(-c3ccccn3)no2)CCO1 (configuration not stated) | 16.4%
COc1ccc(-c2nc(C#N)c(N(C)C)o2)cc1S(=O)(=O)N(C)C | -11.8%
CN1C(=O)C2(CCNCC2)c2cc(F)ccc21 | -4.69%

Structure (SMILES) | cytotoxicity at 70.5 h
CC(=O)NCCNC(=O)c1sccc1Br | -16.2%
CC(C)c1nsc(N2CCc3sccc3C2)n1 | -11.5%
CN(C(=O)CNCCn1cccn1)C1(C#N)CCCCC1 | -3.85%
Cc1ccc(C(C(=O)O)N(C)CCN2CCOCC2)c(F)c1 (configuration not stated) | -9.66%
CN(CCCOc1ccc(F)cc1)Cc1nc2c(cnn2C)c(=O)[nH]1 | 4.27%
Cc1cc(NC(=O)NCc2cccnc2OC(C)C)n(C)n1 | -6.35%
CC(=O)N1N=C(c2ccccc2)OC1C(=O)NCCC1=CCCCC1 (configuration not stated) | -0.565%
CCCOCC(=O)N1CCCC(c2nnc(CN3CCCCC3)n2C)C1 (configuration not stated) | 9.63%
CC(C)CNc1nc2c(cc1C(=O)NCC1CC1)CCNCC2 | 24.9%
Cc1ccc(C(=O)Nc2ccc(N3CCCC3)cn2)cc1C | 0.417%
CCc1ccc(NC(C(N)=O)c2ccc(F)cc2)cc1 (configuration not stated) | -5.1%
O=C(c1cc(C2CC2)on1)N1CCC(Oc2ncccc2Cl)CC1 | -6.96%
O=C(c1ccc(F)c(F)c1)N1CCN2CCCC2C1 (configuration not stated) | 3.92%
CN1CCN(C(=O)Cc2ccc(S(=O)(=O)C(F)F)cc2)CC1 | -8.11%
Cc1nccn1CCCN1CCCC(c2ccccc2)C1 (configuration not stated) | -1.68%
Cc1csc(C2CCCCN2C(=O)c2cc(C(C)C)[nH]n2)n1 (configuration not stated) | 1.99%
COc1ccccc1C(C)CNC(=O)c1c(C)nn(C)c1OC (configuration not stated) | -3.39%
O=C(Cc1cccs1)N1C[C@H]2CN(CC3CCCO3)CC[C@H]2C1 (some centres not stated) | -6.25%
Cc1n[nH]c(C2CN(Cc3nnc(C4CC4)n3C)CCO2)n1 (configuration not stated) | -6.69%
COc1c(F)cc(NCC(=O)NC(C)(C#N)C2CC2)cc1F (configuration not stated) | -0.61%
COc1ccc(CC(=O)NC(C)c2nc3cccnc3n2C(C)C)cc1 (configuration not stated) | 2.45%

Structure (SMILES) | cytotoxicity at 70.5 h
CCCN1CCC(CC(=O)N(C)CC(=O)c2ccc(O)cc2)CC1 | -12.2%
CCC(CC)NC(=O)CN1CCN(C(=O)N(C)C)CC1 | -0.0942%
COc1ccccc1CC1CCCN(C(=O)c2nccnc2N)C1 (configuration not stated) | -6.5%
CN(C)C(C)(C)CNC(=O)C(C)(C)c1ccccc1F | 4.83%
Cc1cc(C)c2[nH]c(C(=O)NCCN3CCNC3=O)c(C)c2c1 | -5.43%
O=C(CSc1ccccn1)N1C[C@H]2CC[C@@H]1CN(Cc1cscn1)C2 | -8.62%
Cc1ccc2nc(C(=O)N3CCNC(=O)C3c3cccc(F)c3)cn2c1 (configuration not stated) | 24.1%
Cc1ccc(CNC(=O)CN2C=Nc3ccccc3S2(=O)=O)s1 | -11.3%
CCNC(=O)C(C)NC(=O)Nc1ccccc1SCC (configuration not stated) | -16.9%
CN1C[C@H]2CN(Cc3cccc(OC(F)(F)F)c3)CCN2C1=O | 8.83%
Cc1cc(C(=O)NS(=O)(=O)Cc2ccon2)c(C)n1C(C)C | -4.61%
COC1CCN(C(=O)CCn2cccn2)CC1 | -8.03%
COc1ccc(-c2cnc(CN3CCCC3Cn3cncn3)o2)cc1 (configuration not stated) | -6.4%
NC(=O)CN(Cc1cccc(Oc2ccccc2)c1)C(=O)C1CC1 | -4.97%
O=C1NCc2ccccc2CC12CCCN(CCCc1ccccc1)C2 (configuration not stated) | -3.38%
CCC(NCc1cc[nH]n1)c1nc(C(F)(F)F)cs1 (configuration not stated) | -4.23%
CCC(C)NC(=O)CS(=O)(=O)Cc1ccccc1Cl (configuration not stated) | -7.35%
Cc1ccc(F)c(S(=O)(=O)N2CCCC2c2ccncc2)c1 (configuration not stated) | -1.25%
CNC(=O)[C@@H]1CCO[C@@H]2CCN(CCc3ccccc3)C[C@H]21 | -3.11%
COCCNC(=O)c1cn(C(C)(C)C)c2ncccc12 | -5.71%
COCC(C)NC(=O)c1cn(C(C)(C)C)c2ncccc12 (configuration not stated) | -6.59%

Structure (SMILES) | cytotoxicity at 70.5 h
Cc1ccc(NC2CCN(C(=O)CCc3c(C)noc3C)CC2)nn1 | -11.1%
CCN(C)c1ncnc2c1CCN(C(=O)COC)CC2 | -10.8%
O=C(COc1coc(CN2CCCC2)cc1=O)Nc1cc(Cl)ccc1Cl | -7.96%
Cc1cc(NC(=O)NCCc2ccc(S(N)(=O)=O)cc2)n(C)n1 | -6.71%
Cc1cc(C(=O)N2C[C@H](CO)C[C@H](CN3CCOCC3)C2)cnc1C | 14.5%
Cc1cccc(C(=O)NCc2ccc(S(N)(=O)=O)cc2)n1 | -12.2%
Cc1nn(C)c(C)c1CC(=O)NCc1cccnc1OC1CCCC1 | -3.95%
CSCC(=O)Nc1nccn1Cc1ccc(Br)cc1 | -3.91%
O=C(c1cnccn1)N1CCc2ncc(CN3CCOCC3)n2CC1 | -8.64%
CN1C[C@@H](O)[C@]2(CCN(C(=O)c3ccccc3)C2)S1(=O)=O | -7.54%
O=C(NCCn1cnnc1C1CC1)c1c(O)cc(F)cc1F | -11.9%
CN(Cc1ccc(N(C)C)cc1)C(=O)CS(=O)(=O)c1ccc(Cl)cc1 | 17%
O=C(C1CNCCO1)N1CCC(c2cc(N3CCCC3)ncn2)CC1 (configuration not stated) | 14.8%
CCn1cc2c(n1)CN(Cc1ccc(C)o1)CC2COCC1CC1 (configuration not stated) | -5.09%
CCOC1COC2(CCN(Cc3ccc(C)c(C)c3)CC2)C1 (configuration not stated) | -11%
Cc1nc(C(=O)N2CCN(c3ccc(Cl)c(Cl)c3)CC2)cs1 | -3.76%
Fc1cnc(N2C[C@H]3CN(Cc4cccc(F)c4)C[C@H]3C2)nc1 | -13.6%
CC(=O)N1CCC2(CC1)C(=O)N(c1cccnc1)c1ccc(F)cc12 | -4.87%
Cc1cccc(-c2nnn3c2COC(CNCc2nccs2)C3)c1 (configuration not stated) | -3.21%
